Assay results published in PubChem BioAssay AID1159564 (GlaxoSmithKline (GSK), 2015).
Activity calls are given as the source filed them. How the calls were made is not given here.

Test system: L. donovani-infected THP-1 macrophages, intracellular amastigote imaging
Test: intracellular L. donovani amastigote inhibition, imaging, THP-1 host macrophages, host toxicity (AID 1159564)
[1] = measured here: THP-1 host cell toxicity
[2] = measured here: amastigotes per macrophage

COc1cccc(S(=O)(=O)Nc2ccc3c(c2)CC(N2CCC(NC(=O)C4CC4)CC2)C3)c1 (stereo unspecified)
IC50: > 50 µM (inactive)
IC50 [1]: > 50 µM
IC50 [2]: 25 µM

c1ccc(-c2nc(NC3CCCC3)c3ccccc3n2)nc1
IC50: 2 µM
IC50 [1]: 20 µM
IC50 [2]: 1.3 µM

COc1ccc2ncc(=O)n(CCN3CCOC(CNCc4ccc(C(F)(F)F)cc4F)C3)c2n1 (stereo unspecified)
IC50: > 50 µM (inactive)
IC50 [1]: > 50 µM
IC50 [2]: > 50 µM

CCN(Cc1ccncc1)Cc1ccc(NC(=O)c2cc(-c3ccc(F)cc3)n[nH]2)cc1
IC50: > 50 µM (inactive)
IC50 [1]: 5 µM
IC50 [2]: 2.5 µM

COc1ncc(-c2ccc3nccc(-c4ccncc4)c3c2)cc1NS(=O)(=O)C1CC1
IC50: 1.3 µM
IC50 [1]: 1 µM
IC50 [2]: 0.32 µM

COc1ccc([N+](=O)[O-])cc1NC(=O)Nc1cccc(Cl)c1
IC50: > 50 µM (inactive)
IC50 [1]: 50 µM
IC50 [2]: > 50 µM

c1ccc(-c2nc(NC3CCCCC3)cc(C3CC3)n2)nc1
IC50: 4 µM
IC50 [1]: 20 µM
IC50 [2]: 3.2 µM

O=C(NC1C(=O)N(c2ccccc2)C1c1cccnc1)c1ccc(Cl)s1 (stereo unspecified)
IC50: > 50 µM (inactive)
IC50 [1]: > 50 µM
IC50 [2]: 0.79 µM

c1ccc2sc(Nc3nc4ncccc4[nH]3)nc2c1
IC50: 2.5 µM
IC50 [1]: 16 µM
IC50 [2]: 1.3 µM

Cc1ccc(-c2csc(NC(=O)C=Cc3ccc(S(=O)(=O)N4CCOCC4)cc3)n2)o1
IC50: 5 µM
IC50 [1]: > 50 µM
IC50 [2]: 0.79 µM

Cc1ccc(NC(=O)c2ccc([N+](=O)[O-])s2)cc1S(=O)(=O)N1CCOCC1
IC50: 3.2 µM
IC50 [1]: 40 µM
IC50 [2]: 2 µM

COc1ccc(C2CC(c3ccccc3Cl)=NN2C(=O)CNC(=O)C2CCCC2)cc1 (stereo unspecified)
IC50: > 50 µM (inactive)
IC50 [1]: > 50 µM
IC50 [2]: > 50 µM

O=C1c2cnc(N3CCCC3)nc2CN1c1ccc2c(c1)OCO2
IC50: 10 µM
IC50 [1]: > 50 µM
IC50 [2]: 6.3 µM

COc1cc(Nc2nccc(Nc3onc(C)c3C)n2)cc(S(=O)(=O)C2CCOCC2)c1
IC50: > 50 µM (inactive)
IC50 [1]: 40 µM
IC50 [2]: 5 µM

O=C(Nc1ncc([N+](=O)[O-])s1)C1CC1
IC50: > 50 µM (inactive)
IC50 [1]: > 50 µM
IC50 [2]: > 50 µM

O=C(c1cccc(Nc2ncc(-c3ccc4c(c3)OCO4)cn2)c1)N1CCSC1
IC50: 2 µM
IC50 [1]: 13 µM
IC50 [2]: 1 µM

N#Cc1ccc(C(=O)Nc2cccc(-c3cccc(CN4CCC(O)CC4)c3)c2)cc1
IC50: 16 µM
IC50 [1]: 16 µM
IC50 [2]: 7.9 µM

Cc1c(Nc2cc(C3CC3)[nH]n2)ccc(C#N)c1Cl
IC50: 40 µM
IC50 [1]: 25 µM
IC50 [2]: 25 µM

O=C(NCc1ccc(Cl)cc1)C1CN(C(=O)c2ccc(F)cc2)CCS1 (stereo unspecified)
IC50: > 50 µM (inactive)
IC50 [1]: > 50 µM
IC50 [2]: > 50 µM

Cc1ccccc1CNc1cc(C2CC2)nc(-c2nccn2C)n1
IC50: 0.63 µM
IC50 [1]: 10 µM
IC50 [2]: 0.63 µM

c1ccc(CCNCc2cncc3nc(-c4cnccn4)n(C4CCCCC4)c23)cc1
IC50: > 50 µM (inactive)
IC50 [1]: > 50 µM
IC50 [2]: > 50 µM

Cc1cc(=O)n2nc(Oc3ccc(C#N)cc3Cl)sc2n1
IC50: 32 µM
IC50 [1]: 32 µM
IC50 [2]: 32 µM

O=C(NCC1CCCCC1)c1cc(=O)c2ccccc2o1
IC50: 16 µM
IC50 [1]: < 50 µM
IC50 [2]: 6.3 µM

CN1CCCN(C(=O)c2ccc(N3CCCC3)cc2Cl)CC1
IC50: > 50 µM (inactive)
IC50 [1]: > 50 µM
IC50 [2]: > 50 µM

O=C(Nc1nc2ccccc2[nH]1)c1c(O)c2cccc3c2n(c1=O)CC3
IC50: 2 µM
IC50 [1]: > 50 µM
IC50 [2]: 1 µM

O=C1CN(C2CCCc3c(OCc4ccncc4)cccc32)C(=O)N1C1CCCCC1 (stereo unspecified)
IC50: > 50 µM (inactive)
IC50 [1]: > 50 µM
IC50 [2]: > 50 µM

O=C(Cn1cnc2cc([N+](=O)[O-])ccc2c1=O)NCCc1ccc(Cl)cc1Cl
IC50: > 50 µM (inactive)
IC50 [1]: > 50 µM
IC50 [2]: > 50 µM

O=C(NCC(c1cccs1)N1CCOCC1)c1ccc([N+](=O)[O-])o1 (stereo unspecified)
IC50: 25 µM
IC50 [1]: 25 µM
IC50 [2]: 16 µM

COc1ccc(OC)c(S(=O)(=O)N(Cc2c(F)cccc2F)[C@@H]2CCN(C#N)C2)c1
IC50: 25 µM
IC50 [1]: 20 µM
IC50 [2]: 20 µM

COc1ccc(Cc2nc(-c3ncc4cccnc4c3O)n[nH]2)cc1OC
IC50: 3.2 µM
IC50 [1]: 20 µM
IC50 [2]: 2.5 µM

O=C(Nc1cccc(F)c1)N1CCC(Oc2cccc(-c3cccnc3)c2)CC1
IC50: > 50 µM (inactive)
IC50 [1]: 20 µM
IC50 [2]: 0.79 µM

CC(C)c1sc(Cl)nc1C(=O)NCCc1nc(C(=O)Nc2ccc3c(c2)OCO3)cs1
IC50: 5 µM
IC50 [1]: > 50 µM
IC50 [2]: 2.5 µM

N#Cc1ccc(Br)cc1[N+](=O)[O-]
IC50: 20 µM
IC50 [1]: 25 µM
IC50 [2]: 13 µM

CC1(C)CCC(=Cc2ccc(Cl)cc2)CC1(O)Cn1ccnc1 (stereo unspecified)
IC50: 7.9 µM
IC50 [1]: 13 µM
IC50 [2]: 2 µM

COc1ccc(CNc2nsc3ccccc23)cc1OC
IC50: 6.3 µM
IC50 [1]: 25 µM
IC50 [2]: 5 µM

Cn1nccc1NC(=O)Cn1ccc(-c2ccncc2)n1
IC50: > 50 µM (inactive)
IC50 [1]: > 50 µM
IC50 [2]: > 50 µM

CN(C)Cc1ccc(-c2ccc(S(=O)(=O)NCC3CCCO3)c(F)c2)cc1 (stereo unspecified)
IC50: > 63 µM (inactive)
IC50 [1]: 63 µM
IC50 [2]: > 63 µM

COc1cccc2sc(CN(C)C(=O)C3CNCCN3c3ccc(F)cc3)c(C)c12 (stereo unspecified)
IC50: 6.3 µM
IC50 [1]: 13 µM
IC50 [2]: 4 µM

O=[N+]([O-])c1ccc(C2=CC(c3ccccc3)=NCCN2)cc1
IC50: 20 µM
IC50 [1]: 40 µM
IC50 [2]: 7.9 µM

O=C(c1cnn(-c2ccccc2)n1)N1CCCC(n2ccnc2)C1 (stereo unspecified)
IC50: > 50 µM (inactive)
IC50 [1]: > 50 µM
IC50 [2]: 0.63 µM

COc1ccc([N+](=O)[O-])cc1NC(=O)c1cc(Cl)ccc1O
IC50: 2 µM
IC50 [1]: 10 µM
IC50 [2]: 1.6 µM

CCN(Cc1nc2ccc(C(=O)N3CCN(c4ncccn4)CC3)cc2[nH]1)C1CCCc2cccnc21 (stereo unspecified)
IC50: 4 µM
IC50 [1]: 20 µM
IC50 [2]: 1.6 µM

N#Cc1cccc(Nc2nccc(N3CCC(NS(=O)(=O)c4cccc(C#N)c4)CC3)n2)c1
IC50: 10 µM
IC50 [1]: > 50 µM
IC50 [2]: 6.3 µM

CS(=O)(=O)c1ccc(CC(=O)Nc2nc(-c3ccc(Cl)s3)cs2)cc1
IC50: > 50 µM (inactive)
IC50 [1]: 16 µM
IC50 [2]: > 50 µM

CN(Cc1ccc(F)cc1)c1ccc(OCC(=O)N2CCCCC2c2cccnc2)nn1 (stereo unspecified)
IC50: > 50 µM (inactive)
IC50 [1]: 32 µM
IC50 [2]: > 50 µM

O=C(Nc1nc(-c2ccccn2)cs1)c1ccccc1-n1cnnn1
IC50: 6.3 µM
IC50 [1]: 5 µM
IC50 [2]: 4 µM

Cc1ccc(S(=O)(=O)Cn2nnnc2C(c2cccnc2)N2CCN(c3ccccc3)CC2)cc1 (stereo unspecified)
IC50: > 50 µM (inactive)
IC50 [1]: > 50 µM
IC50 [2]: > 50 µM

CC(C)(C)CC(=O)NCc1noc(COc2ccccc2)n1
IC50: > 50 µM (inactive)
IC50 [1]: > 50 µM
IC50 [2]: > 50 µM

c1ccc(-c2nc(NCc3ccco3)c3ccccc3n2)nc1
IC50: 2.5 µM
IC50 [1]: 32 µM
IC50 [2]: 2.5 µM

COCc1cc(Nc2ccccc2)nc(-c2ccccn2)n1
IC50: 7.9 µM
IC50 [1]: > 50 µM
IC50 [2]: 5 µM

Cc1cccc(NS(=O)(=O)c2cnc3sc(C)cn3c2=O)c1
IC50: > 50 µM (inactive)
IC50 [1]: > 50 µM
IC50 [2]: 5 µM

Cc1nc2c(-c3cccs3)c(C)nn2c(NCCO)c1C
IC50: > 50 µM (inactive)
IC50 [1]: > 50 µM
IC50 [2]: > 50 µM

Cc1[nH]n2c(=O)c3c(nc2c1-c1ccc(Cl)cc1)CCCC3
IC50: > 50 µM (inactive)
IC50 [1]: 13 µM
IC50 [2]: > 50 µM

Cc1ccc(S(=O)(=O)Nc2ccc(CN3CCN(C(=O)c4cccc(C)c4)CC3)cc2)cc1
IC50: 40 µM
IC50 [1]: 40 µM
IC50 [2]: 32 µM

CCN(C)Cc1ccc(N2CCC(NS(=O)(=O)c3ccc4c(c3)CCO4)CC2)nc1
IC50: > 50 µM (inactive)
IC50 [1]: > 50 µM

CCS(=O)(=O)c1cccc(C(=O)Nc2nc(-c3ccccn3)cs2)c1
IC50: 4 µM
IC50 [1]: 20 µM
IC50 [2]: 3.2 µM

O=c1cc(NCCCNCc2cc(C(F)(F)F)cs2)[nH]c2ccccc12
IC50: 40 µM
IC50 [1]: 20 µM
IC50 [2]: 25 µM

CC(CCc1ccccc1)NC(=O)CN(Cc1ccccn1)Cc1ccccn1 (stereo unspecified)
IC50: 3.2 µM
IC50 [1]: 20 µM
IC50 [2]: 3.2 µM

CNc1cncc(C2CCCN2C(=O)Cc2ccc3ccccc3c2)n1 (stereo unspecified)
IC50: > 50 µM (inactive)
IC50 [1]: > 50 µM
IC50 [2]: > 50 µM

O=C(O)[C@H]1C[C@@H]1c1ccc(-c2ccc(CN(CCc3ccccn3)C(=O)C3CCC3)cc2)cc1
IC50: > 50 µM (inactive)
IC50 [1]: > 50 µM
IC50 [2]: > 50 µM

Cc1ccc2ccc(C(Nc3ccccn3)c3cccnc3)c(O)c2n1 (stereo unspecified)
IC50: 13 µM
IC50 [1]: > 50 µM
IC50 [2]: 7.9 µM

COc1ccc(-c2cnc(NC(=O)c3ccc(F)cc3)n2C)cc1
IC50: 1.3 µM
IC50 [1]: > 50 µM
IC50 [2]: 0.5 µM

Cc1cc(Nc2ccc(C#N)c(Cl)c2C)n[nH]1
IC50: > 50 µM (inactive)
IC50 [1]: 20 µM
IC50 [2]: > 50 µM

CC(C)CC(=O)NC(c1cccs1)c1ccc2cccnc2c1O (stereo unspecified)
IC50: 7.9 µM
IC50 [1]: 1.6 µM
IC50 [2]: 3.2 µM

Cc1ccc2sc(NC(=O)Cn3cnc([N+](=O)[O-])n3)nc2c1
IC50: > 50 µM (inactive)
IC50 [1]: > 50 µM
IC50 [2]: > 50 µM

COc1cc(F)c2ncc(F)c(CCN3CC[C@H](NCc4cc5c(cn4)OCS5)[C@@H](O)C3)c2c1
IC50: 16 µM
IC50 [1]: 16 µM
IC50 [2]: 13 µM

Cc1ccc(Nc2nc(C3CCCN3Cc3ccn[nH]3)cs2)nc1 (stereo unspecified)
IC50: 1.6 µM
IC50 [1]: 25 µM
IC50 [2]: 1.3 µM

COc1cc(-c2nc(N3CCOCC3)sc2-c2ccnc(NC3CCOCC3)n2)ccc1Cl
IC50: > 50 µM (inactive)
IC50 [1]: > 50 µM
IC50 [2]: 0.02 µM

COc1ccc(S(=O)(=O)Nc2ccc(C(=O)Nc3nc(-c4ccccn4)cs3)cc2)cc1
IC50: 0.4 µM
IC50 [1]: 10 µM
IC50 [2]: 0.16 µM
